Legend:
[1] = system: NCI-H1373 lung cancer cells; experiment: Inhibition of cancer cell growth in NCI-H1373 cells (FIG. 2); assay type: cell-based, human
[2] = system: CT26 mouse colon cancer cells; experiment: Induction of interferon-beta levels in CT26 cells in the presence of STING agonist DMXAA (FIG. 3); assay type: cell-based
[3] = system: RAW264.7 mouse macrophages; experiment: Induction of interferon-beta levels in RAW264.7 macrophages in the presence of STING agonist DMXAA (FIG. 3); assay type: cell-based
[4] = target: TIPARP (PARP7) (Homo sapiens (Human), UniProt Q7Z3E1); experiment: Enzymatic assay for inhibition of PARP7: displacement of biotinylated Probe A (TR-FRET); assay type: binding; details: TR-FRET displacement of Probe A from TIPARP
Procedure: 20 nL of a dose response curve of each test compound was spotted in black 384-well polystyrene proxiplates (Perkin Elmer) using a Mosquito (TTP Labtech). […] Reactions were incubated at 25° C. for an additional 30 min, then read on an Envision plate reader equipped with a LANCE/DELFIA top mirror (Perkin Elmer) using excitation of 320 nm and emission of 615 nm and […] with a 90 μs delay. The ratio of the 665/615 nm emission were calculated for each well to determine the amount of complex of TIPARP and Probe A in each well. […] The Hill Coefficient is normally allowed to float but may also be fixed at 1 in a 3-parameter fit. Y is the % inhibition and X is the compound concentration.

[5] = system: panel of cancer cell lines; experiment: Inhibition of cancer cell growth, 72 hrs (CellTiter-Glo), GI50, Table A-2; assay type: cell-based
Procedure: (§1) Example C: Inhibition of Cancer Cell Growth by Treatment with PARP7 Inhibitors
(§2) Table A-2 and Table A-3 (below) represents the concentration that causes 50% growth inhibition (GI50) in a panel of cancer cell lines with Compound 18B and Compound 561. Cells were plated into 384-well plates at a pre-specified density in fetal bovine serum-containing media. Cells were treated with compound or vehicle (DMSO) 24 hrs later, and a day zero plate was collected for analysis. Test compound plates were incubated continuously for 72 hrs (Table A-2) or 144 hours (Table A-3) cell growth was assessed using a luminescent cell viability assay (CellTiter-Glo, Promega). The GI50 was determined by correcting for the cell count at time zero (time of treatment) and plotting data as percent growth relative to vehicle-treated cells.

[6] = system: CT26 cells; experiment: Proliferation of CT26 cells in the presence of PARP7 inhibitors (CellTiter-Glo); assay type: cell-based, mouse; details: 4 days incubation
Procedure: Example F: Proliferation of CT26 Cells in the Presence of PARP7 Inhibitors
CT26 cells were plated in a 384-well plate and allowed to adhere for several hours before being treated with Compound 18B. Cells were incubated with compound for 4 days prior to processing with CellTiter-Glo reagent (Promega). Luminescence was measured with a Perkin Elmer Envision and percent inhibition was calculated using the vehicle (DMSO) average as 0% inhibition. Non-linear regression analysis was performed using a 4 parameter (variable slope) fit in GraphPad Prism.

[7] = system: human NCI-H1373 lung cancer xenograft; experiment: Tumor growth in human NCI-H1373 lung cancer xenograft (FIG. 7A); assay type: in vivo; details: once daily administration
[8] = system: murine CT26 colon cancer syngeneic model; experiment: Tumor growth in murine CT26 colon cancer syngeneic model (FIG. 6A-C, 7B); assay type: in vivo, mouse; details: once or twice daily administration, FIG. 7B
[9] = system: panel of cancer cell lines; experiment: Inhibition of cancer cell growth, 144 hours (CellTiter-Glo), GI50, Table A-3; assay type: cell-based; details: MDA-MIB-468 cell line, breast adenocarcinoma
Procedure: as §1, §2

[10] = system: NCI-H1373 cells; experiment: Inhibition of tumor growth by oral dosing, human NCI-H1373 lung cancer xenograft; assay type: in vivo, SCID mice
Excerpt: (§3) Example H: Inhibition of Tumor Growth by Oral Dosing with a PARP7 Inhibitor
(§4) The effect of Compound 561 on tumor growth was studied in a human NCI-H1373 lung cancer xenograft and a murine CT26 colon cancer syngeneic model.
For the NCI-H1373 study, SCID mice were inoculated subcutaneously in the right flank with NCI-H1373 cells for tumor development. After 5 days of tumor growth, mice with 89-148 mm^3 tumors were randomized into treatment groups with mean tumor volumes of 121 mm^3. The treatments were started from the next day post randomization (defined randomization day as day 0) and were treated with vehicle (50% Labrasol) or Compound 561 (62.5, 125, 250, and 500 mg/kg) once a day for 28 days by oral gavage. Tumor volumes were determined by manual calipers every 2-3 days. Mean tumor volume and SEM are plotted. QD: once a day; PO: per oral administration. Statistical significance is calculated using two-way ANOVA followed by Bonferroni post-tests in which the treatment groups were compared to vehicle control (****P<0.0001).

[11] = system: CT26 cells; experiment: Inhibition of tumor growth by oral dosing, murine CT26 colon cancer syngeneic model; assay type: in vivo; details: BALB/c mice, 125-500 mg/kg BID or 500 mg/kg QD, 21 days
Excerpt: as §3, §4
For the CT26 study, BALB/c mice were inoculated subcutaneously in the right flank with CT26 cells for tumor development. After 5 days of cell inoculation, mice with 36-79 mm^3 tumors were randomized into treatment groups with mean tumor volumes of 54 mm^3. The treatments were started from the next day post randomization (defined randomization day as day 0) and were treated with vehicle (25 or 50% Labrasol) or Compound 561 BID (2 times a day every 12 hours) at doses ranging from 125-500 mg/kg or QD (once a day) at 500 mg/kg for 21 days by oral gavage or needle subcutaneously. Tumor volumes were determined by manual calipers every 2-3 days. Mean tumor volume and SEM are plotted. BID: twice a day; PO: per oral administration; QD: once a day; SC: per subcutaneous administration. The first two doses for vehicle and Compound 561 500 mg/kg in the QD groups were delivered by subcutaneous injection. […] Statistical significance is calculated using two-way ANOVA followed by Bonferroni post-tests in which the treatment groups were compared to vehicle control (****P<0.0001).

TIPARP (PARP7), sequence (Q7Z3E1 whole entry): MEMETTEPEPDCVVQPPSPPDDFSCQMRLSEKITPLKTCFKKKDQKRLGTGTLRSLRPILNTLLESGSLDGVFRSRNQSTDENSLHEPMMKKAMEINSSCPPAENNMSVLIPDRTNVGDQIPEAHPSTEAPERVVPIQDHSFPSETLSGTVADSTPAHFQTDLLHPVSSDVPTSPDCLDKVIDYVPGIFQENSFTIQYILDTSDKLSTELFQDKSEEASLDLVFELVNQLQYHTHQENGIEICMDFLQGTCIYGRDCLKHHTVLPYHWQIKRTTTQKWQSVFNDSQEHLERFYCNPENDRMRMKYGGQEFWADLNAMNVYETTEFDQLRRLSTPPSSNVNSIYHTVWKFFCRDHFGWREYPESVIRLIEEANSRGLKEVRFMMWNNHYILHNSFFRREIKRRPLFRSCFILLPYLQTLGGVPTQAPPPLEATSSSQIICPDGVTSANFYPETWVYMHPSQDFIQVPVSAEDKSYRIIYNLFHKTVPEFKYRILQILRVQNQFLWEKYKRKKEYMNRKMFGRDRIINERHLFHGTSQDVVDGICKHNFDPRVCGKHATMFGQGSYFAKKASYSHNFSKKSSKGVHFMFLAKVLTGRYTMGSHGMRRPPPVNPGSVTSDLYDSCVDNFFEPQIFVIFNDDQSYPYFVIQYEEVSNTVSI

## N#Cc1ccc(N2CCN(C(=O)c3cccc(OC[C@@H]4c5ccccc5CN4c4cn[nH]c(=O)c4C(F)(F)F)c3)CC2)nc1 [Example 18B, 6-[4-[(3-[[(1S)-2-[6-Oxo-5-(trifluoromethyl)-1,6-dihydropyridazin-4-yl]-2,3-dihydro-1H-isoindol-1-yl]methoxy]phenyl)carbonyl]piperazin-1-yl]pyridine-3-carbonitrile]
[1]
  growth of NCI-H1373 lung cancer cells: dose-dependent decrease in growth
[2]
  interferon-beta (IFN-β) levels: induction of interferon-beta (IFN-β) levels
[3]
  interferon-beta (IFN-β) levels: induction of interferon-beta (IFN-β) levels
[4]
  IC50: < 100 nM
[5]; 72 h, GSS cell line, stomach adenocarcinoma
  GI50: 100 to 1000 nM
[5]; LUDLU-1, 72 h, LUDLU-1 cell line, lung squamous cell carcinoma
  GI50: 100 to 1000 nM
[6]
  proliferation in CT26 cells in vitro: do not inhibit proliferation

## C[C@@H](COCCC(=O)N1CCN(c2ncc(C(F)(F)F)cn2)CC1)Nc1cn[nH]c(=O)c1C(F)(F)F [Example 561, 5-[[(2S)-1-(3-oxo-3-[4-[5-(trifluoromethyl)pyrimidin-2-yl]piperazin-1-yl]propoxy)propan-2-yl]amino]-4-(trifluoromethyl)-2,3-dihydropyridazin-3-one]
[7]
  tumor growth: significantly reduces tumor growth
[8]
  tumor growth: significantly reduces tumor growth
[9]
  GI50: ≥ 1000 nM
[10]; 62.5 to 500 mg/kg once a day for 28 days, all dose levels
  tumor regression: complete tumor regression
[10]; SCID mice, once daily oral gavage, 28 days
  tumor growth: significantly reduces tumor growth
[11]
  tumor growth: significantly reduces tumor growth

Source: US10870641B2, “Pyridazinones as PARP7 inhibitors” (Ribon Therapeutics Inc., priority 2018, dated 2020)
